Experimental data as given in patent publication US20240083885A1, “COMPOSITIONS AND METHODS FOR INHIBITING M PRO PROTEASE ACTIVITY AND FOR PREVENTING AND TREATING SARS-COV-2 INFECTION” (priority 2020, published 2024).
“And” between values parts separate entries of the source, which are not always exact repeats. Equal entries are not always repeated. Where two headings read alike, the source gives them in different places.

Assays:
[1] = target: T1, SARS-CoV-2 M^pro (Severe acute respiratory syndrome coronavirus 2 (2019-nCoV) (SARS-CoV-2), UniProt P0DTD1); experiment: biochemical
[2] = target: SARS-CoV M^pro (Severe acute respiratory syndrome coronavirus (SARS-CoV), UniProt P0C6X7); experiment: biochemical
[3] = target: SARS-CoV-2 papain-like protease (PL^pro) (Severe acute respiratory syndrome coronavirus 2 (2019-nCoV) (SARS-CoV-2), UniProt P0DTD1); experiment: biochemical
[4] = target: T1, SARS-CoV-2 M^pro; experiment: biochemical; type: binding
[5] = target: T1, SARS-CoV-2 M^pro; type: binding; conditions: for mass modification (mass shift) of M^pro adduct: native mass spectrometry, covalent adduct
[6] = system: SARS-CoV-2; experiment: microbe, parasite or virus in culture; type: cell-based; conditions: Severe acute respiratory syndrome coronavirus 2, Vero C1008; read-out: antiviral EC50 against SARS-CoV-2 in Vero E6 cells
[7] = target: T1, SARS-CoV-2 M^pro; experiment: biochemical; remark: listed apart in the source
[8] = target: T1, SARS-CoV-2 M^pro; experiment: cell-based
[9] = system: SARS-CoV-2; experiment: microbe, parasite or virus in culture; type: cell-based; conditions: Severe acute respiratory syndrome coronavirus 2; read-out: antiviral EC50 against SARS-CoV-2 in Caco2-hACE2 cells
[10] = in vitro; conditions: African green monkey, CC50 in Vero E6 cells
[11] = in vitro; conditions: human, CC50 in Calu-3 cells
[12] = system: Calu-3 cells; conditions: human, 5 days
[13] = target: calpain I (Homo sapiens (Human), UniProt P07384); experiment: Host protease FRET-based enzymatic assay: calpain I; type: biochemical
Description: (§1) Enzymatic reactions against host proteases (Calpain I, Cathepisn K, Cathespsin L, Caspase-3 and Trypisn) were carried out as previously described (see, Xia, Z.; et al., ACS Pharmacol. Transl. Sci. 2021). Cathepsin B assay reaction was carried out as follows: Cathepsin B (catalog no. CTB-H5222) was diluted into 100 nM final concentration in a buffer containing 20 mM sodium acetate pH5.5, 1 mM EDTA and 2 mM DTT and the mixture was incubated for 30 min at 30° C. Activated Cathepsin B was further diluted to 500 pm in the reaction buffer (100 mM MES pH6.0, 1 mM EDTA, 2 mM DTT and 0.01% TWEEN 20).

[14] = target: T2, Cathepsin B (Homo sapiens (Human), UniProt P07858); experiment: Host protease FRET-based enzymatic assay: cathepsin B; type: biochemical
Description: as §1

[15] = target: cathepsin K (Homo sapiens (Human), UniProt P43235); type: biochemical
[16] = target: T3, Cathepsin L (Homo sapiens (Human), UniProt P07711); experiment: Host protease FRET-based enzymatic assay: cathepsin L; type: biochemical
Description: The cathepsin L enzymatic assay was carried out as follows: human liver cathepsin L (EMD Millipore 219402) was activated by incubating at reaction buffer (20 mM sodium acetate, 1 mM EDTA and 5 mM DTT pH5.5) for 30 min at 30° C. Upon activation, the assay was assembled in 96-well plates with 100 μl of 300 pM cathepsin L protein in cathepsin L reaction buffer. Then 1 μl testing compound at various concentrations was added to each well and incubated at 30° C. for 30 min. The enzymatic reaction was initiated by adding 1 μl of 100 μM FRET substrate Z-Phe-Arg-AMC (the final substrate concentration is about 1 μM). The reaction was monitored in a Cytation 5 image reader with filters for excitation at 360/40 nm and emission at 460/40 nm at 30° C. for 1 hr. The IC50 values were calculated as described in above section.
as §1

[17] = target: caspase-3 (Homo sapiens (Human), UniProt P42574); experiment: Host protease FRET-based enzymatic assay: caspase-3; type: biochemical
Description: as §1

[18] = system: trypsin; experiment: Host protease FRET-based enzymatic assay: trypsin; type: biochemical
[19] = Cytotoxicity in Vero E6 cells (neutral red uptake); conditions: African green monkey, CC50 in Vero E6 cells
[20] = system: SARS-CoV-2; experiment: microbe, parasite or virus in culture; type: cell-based; conditions: Severe acute respiratory syndrome coronavirus 2, Calu-3; read-out: antiviral EC50 against SARS-CoV-2 in Calu-3 cells
[21] = target: T3, Cathepsin L; conditions: cited from earlier work
[22] = target: T2, Cathepsin B; conditions: cited from earlier work
[23] = read-out: IC50 against SARS-CoV-2 M^pro
[24] = read-out: Additional off targets: Cathepsin B IC50

T3 sequence (P07711 114-333 limits assumed): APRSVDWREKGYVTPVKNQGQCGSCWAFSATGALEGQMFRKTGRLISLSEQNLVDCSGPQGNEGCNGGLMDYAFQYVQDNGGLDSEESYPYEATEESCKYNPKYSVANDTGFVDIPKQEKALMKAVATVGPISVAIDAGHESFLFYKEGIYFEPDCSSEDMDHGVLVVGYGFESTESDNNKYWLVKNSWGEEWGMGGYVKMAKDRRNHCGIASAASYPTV
Chain of caspase-3 (P42574 29-175 limits assumed): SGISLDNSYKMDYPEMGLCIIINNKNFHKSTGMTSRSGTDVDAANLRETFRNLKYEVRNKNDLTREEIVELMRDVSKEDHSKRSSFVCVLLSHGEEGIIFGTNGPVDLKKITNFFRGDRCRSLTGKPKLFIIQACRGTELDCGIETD
Chain of caspase-3 (P42574 176-277 limits assumed): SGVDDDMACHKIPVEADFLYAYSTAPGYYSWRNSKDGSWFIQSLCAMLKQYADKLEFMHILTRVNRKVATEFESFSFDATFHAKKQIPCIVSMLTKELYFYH
Chain of cathepsin K (P43235 115-329 limits assumed): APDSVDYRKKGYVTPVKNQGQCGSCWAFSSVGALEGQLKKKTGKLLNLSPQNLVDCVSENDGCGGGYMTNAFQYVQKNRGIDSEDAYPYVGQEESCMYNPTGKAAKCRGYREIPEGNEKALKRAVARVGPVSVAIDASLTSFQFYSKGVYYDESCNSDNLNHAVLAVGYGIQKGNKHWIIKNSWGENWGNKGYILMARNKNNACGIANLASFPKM

In the case of `C[C@H](NC(=O)C(c1cccnc1)N(C(=O)c1ccco1)c1ccc(-c2ccccc2)cc1)c1ccccc1` (single isomer, unassigned) [Compound 23R], the “change of IC50 with pre-incubation time” value [1] is reported as “did not lead to significant changes of the IC50 value”, the IC50 ([1]; IC50 against SARS-CoV-2 M^pro) is reported as 0.15 µM and 0.13 µM and the EC50 ([1]; SARS-COV-2 main protease enzymatic inhibition (separated diastereomers, printed as EC50)) is reported as 0.15 µM. The IC50 ([1]; SARS-CoV-2 M^pro IC50 (μM)) was 0.15 ± 0.03 µM, the IC50 [2] was 0.27 ± 0.03 µM and the IC50 ([3]; IC50 against SARS-CoV-2 papain-like protease (PL^pro)) was > 20 µM. The IC50 ([3]; SARS-CoV-2 PL^pro IC50 (μM)) was > 60 µM, the Kd [4] was 9.43 µM and the “binding to SARS-CoV-2 M^pro in native mass spectrometry” value [5] was “dose-dependent binding”.
`C[C@@H](CCc1ccccc1)NC(=O)[C@@H](c1cccnc1)N(C(=O)C(Cl)Cl)c1ccc(-c2ccccc2)cc1` (single isomer, unassigned) [Jun9-90-4R] gave an IC50 [1, 23] of 0.46 µM, an EC50 [6] of 1.1 µM and a kinact/KI [7] of 867 M⁻¹ s⁻¹. The EC50 [8] was 1.57 µM, the EC50 [9] was 1.43 µM and the CC50 at 5 days [10] was > 100 µM.
In the case of `C[C@H](NC(=O)[C@H](c1cccnc1)N(C(=O)CCl)c1ccc(-n2cccc2)cc1)c1ccccc1` (stereo in doubt) [Jun9-57-3S], the IC50 [1, 23] is reported as 1.13 µM, the CC50 at 5 days [10] is reported as < 11 µM and the CC50 at 5 days [11] is reported as < 2 µM.
For `C[C@H](NC(=O)C(c1cccnc1)N(C(=O)CCl)c1ccc(-c2ccccc2)cc1)c1ccccc1` (stereo partly drawn) [Jun9-54-1, 2-(N-{[1,1′-biphenyl]-4-yl}-2-chloroacetamido)-N-[(1S)-1-phenylethyl]-2-(pyridin-3-yl)acetamide], the IC50 [1, 23] was 0.17 µM, the CC50 [12] was < 3.5 µM and the CC50 at 5 days [11] was < 2 µM.
In the case of `O=C(NC1CCCCC1)C(c1cccnc1)N(C(=O)CCl)c1ccc(-c2ccccc2)cc1` (centres unmarked) [Jun9-55-2, N-([1,1′-biphenyl]-4-yl)-2-chloro-N-(2-(cyclohexylamino)-2-oxo-1-(pyridin-3-yl)ethyl)acetamide], the CC50 at 5 days [10] is reported as < 11 µM and the CC50 at 5 days [11] is reported as < 2 µM.
In the case of `O=C(NC1CC1)C(c1cccnc1)N(C(=O)CCl)c1ccc(-c2ccccc2)cc1` (centres unmarked) [Jun9-57-2, N-([1,1′-biphenyl]-4-yl)-2-chloro-N-(2-(cyclopropylamino)-2-oxo-1-(pyridin-3-yl)ethyl)acetamide], the CC50 at 5 days [10] is reported as < 11 µM and the CC50 at 5 days [11] is reported as < 2 µM.
In the case of `C[C@H](NC(=O)[C@@H](c1cccnc1)N(C(=O)CCl)c1ccc(-n2cccc2)cc1)c1ccccc1` [Jun9-57-3R, N-(4-(1H-pyrrol-1-yl)phenyl)-2-chloro-N-((R)-2-oxo-2-(((S)-1-phenylethyl)amino)-1-(pyridin-3-yl)ethyl)acetamide], the IC50 [1, 23] is reported as 0.05 µM, the CC50 at 5 days [10] is reported as < 11 µM and the CC50 at 5 days [11] is reported as < 2 µM.
With `C[C@H](NC(=O)C(c1cnccn1)N(C(=O)CCl)c1ccc(-c2ccccc2)cc1)c1ccccc1` (stereo partly drawn) [Jun9-59-1, 2-(N-{[1,1′-biphenyl]-4-yl}-2-chioroacetamido)-N-[(1S)-1-phenylethyl]-2-(pyrazin-2-yl)acetamide] the CC50 at 5 days [10] was < 11 µM and the CC50 at 5 days [11] was < 2 µM.
For `CC#CC(=O)N(c1ccc(-c2ccccc2)cc1)C(C(=O)N[C@@H](C)c1ccccc1)c1cccnc1` (stereo partly drawn) [Jun9-62-1, N-([1,1′-hiphenyl]-4-yl)-N-(2-oxo-2-(((S)-1-phenylethyl)amino)-1-(pyridin-3-yl)ethyl)but-2-ynamide], the IC50 [1, 23] was 1.15 µM, the CC50 at 5 days [10] was 18 µM and the CC50 at 5 days [11] was 47.8 µM.
In the case of `C[C@H](NC(=O)[C@@H](c1cccnc1)N(C(=O)C(Cl)Cl)c1ccc(-c2ccccc2)cc1)c1ccccc1` [Jun9-62-2R, N-([1,1′-biphenyl]-4-yl)-2,2-dichloro-N-((R)-2-oxo-2-(((S)-1-phenylethyl)amino)-1-(pyridin-3-yl)ethyl)acetamide], the “change of IC50 with pre-incubation time” value [1] is reported as “longer pre-incubation time gave lower IC50 values”, the EC50 [6] is reported as 0.9 µM and the EC50 [8] is reported as 0.96 µM. The EC50 [9] was 2.05 µM, the “inhibition of calpain I” value [13] was “did not show potent inhibition” and the “inhibition of cathepsin B” value [14] was “did not show potent inhibition”. The “inhibition of cathepsin K” value [15] was “did not show potent inhibition”, the “inhibition of cathepsin L (IC50)” value [16] was “did not show potent inhibition” and the “inhibition of caspase-3 (IC50)” value [17] was “did not show potent inhibition”. The “inhibition of trypsin (IC50)” value [18] was “did not show potent inhibition” and the CC50 at 5 days [19] was > 100 µM.
For `C[C@H](NC(=O)[C@@H](c1cccnc1)N(C(=O)C(Br)(Br)Br)c1ccc(-c2ccccc2)cc1)c1ccccc1` [Jun9-88-6R, N-([1,1′-biphenyl]-4-yl)-2,2,2-tribromo-N-((R)-2-oxo-2-(((S)-1-phenylethyl)amino)-1-(pyridin-3-yl)ethyl)acetamide], the IC50 [1, 23] was 0.08 µM, the EC50 [6] was 0.58 µM and the “mass modification (mass shift) of M^pro adduct” value (“mass modification (mass shift)” for short) [5] was 526 Da. The kinact/KI [7] was 7070 M⁻¹ s⁻¹, the EC50 [8] was 0.92 µM and the EC50 [9] was 2.15 µM. The “inhibition of calpain I” value [13] was “did not show potent inhibition”, the “inhibition of cathepsin B” value [14] was “did not show potent inhibition” and the “inhibition of cathepsin K” value [15] was “did not show potent inhibition”. For the same molecule, the IC50 [16] was 7.37 µM, the “selectivity for inhibiting SARS-CoV-2 M^pro over cathepsin L” value [16] was 94 fold and the “inhibition of caspase-3 (IC50)” value [17] was “did not show potent inhibition”. The “inhibition of trypsin (IC50)” value [18] was “did not show potent inhibition” and the CC50 at 5 days [10] was 5.48 µM.
In the case of `C[C@H](NC(=O)[C@@H](c1cccnc1)N(C(=O)C(Br)Br)c1ccc(-c2ccccc2)cc1)c1ccccc1` [Jun9-89-2R], the IC50 ([1]; IC50 against SARS-CoV-2 M^pro) is reported as 0.08 µM, the “mass modification (mass shift)” value [5] is reported as 526 Da and the CC50 at 5 days [10] is reported as 8.94 µM.
With `C[C@H](NC(=O)[C@@H](c1cccnc1)N(C(=O)C(Cl)(Br)Br)c1ccc(-c2ccccc2)cc1)c1ccccc1` [Jun9-89-4R, N-([1,1′-biphenyl]-4-yl)-2,2-dibromo-2-chloro-N-((R)-2-oxo-2-(((S)-1-phenylethyl)amino)-1-(pyridin-3-yl)ethyl)acetamide] the IC50 [1, 23] was 0.05 µM, the “mass modification (mass shift)” value [5] was 481 Da and 561 Da and the CC50 at 5 days [10] was 8.41 µM.
For `C[C@H](NC(=O)[C@@H](c1cccnc1)N(C(=O)C(Cl)Cl)c1ccc(-c2ccccc2)cc1)c1ccc(Br)cc1` [Jun9-90-3R], the IC50 [1, 23] was 0.3 µM, the EC50 [6] was 2.07 µM and the kinact/KI [7] was 1540 M⁻¹ s⁻¹. The EC50 [8] was 0.91 µM, the EC50 [9] was 3.24 µM and the EC50 [20] was 2 µM. For the same molecule, the CC50 at 5 days [10] was > 100 µM.
For `C[C@@H](OC(C)(C)C)[C@H](NC(=O)OCc1ccccc1)C(=O)N[C@@H](CC1CCCCC1)C(=O)N[C@H](C=O)C[C@@H]1CCNC1=O` [MPI8], the IC50 ([21]; read-out: Cathepsin L IC50) is listed as 0.0012 µM, the IC50 ([21]; read-out: IC50 cathepsin L (recent study)) is listed as 0.23 µM and the IC50 [22, 24] is listed as 0.23 µM. The IC50 ([22]; read-out: IC50 cathepsin B (recent study)) was 0.0012 µM.
For PF-00835231, the IC50 ([21]; read-out: Cathepsin L IC50) is listed as 0.146 µM and the IC50 [22, 24] is listed as 1.3 µM.
